This is an account of results in patent publication US9532994B2, “Agents and methods for enhancing bone formation by oxysterols in combination with bone morphogenic proteins” (THE REGENTS OF THE UNIVERSITY OF CALIFORNIA, priority 2003, dated 2017).

In test [1] the test system is M2-10B4 mouse marrow stromal cell line. Briefly: Alkaline phosphatase (ALP) activity assay in M2 cells. It is filed as cell-based. Conditions: for induction of alkaline phosphatase activity: 10 μM oxysterols, osteogenic medium, 3 days (FIG. 3A); for dose- and time-dependence of induction of alkaline phosphatase activity: concentrations between 0.5-10 μM; for alkaline phosphatase activity: ligands used at 10 μM, ±SD, control vehicle C: 18±2, p<0.01 for C vs. all ligands. As to the method:
(§1) Cells: M2-10B4 mouse marrow stromal cell line obtained from American Type Culture Collection (ATCC, Rockville, Md., U.S.A.) was derived from bone marrow stromal cells of a (C57BL/6J×C3H/HeJ) F1 mouse, and support human and murine myelopoiesis in long-term cultures (as per ATCC) and have the ability to differentiate into osteoblastic and adipocytic cells. Unless specified, these cells were cultured in RPMI 1640 containing 10% heat-inactivated FBS, and supplemented with 1 mM sodium pyruvate, 100 U/ml penicillin, and 100 […] (all from Irvine Scientific).
Alkaline phosphatase activity assay: Colorimetric alkaline phosphatase (ALP) activity assay on whole cell extracts was performed as previously described. […]
Test 2: M2 cells were grown in RPMI medium containing 10% fetal bovine serum (FBS). At confluence, the cells were treated in RPMI containing 5% FBS plus ascorbate at 50 μg/ml and β-glycerophosphate at 3 mM to induce osteoblastic differentiation. Adipogenic differentiation was induced by treating the cells in growth medium plus 10 ˜M troglitazone. A vehicle (C) or oxysterol treatment was applied to cells in a variety of doses (in μM): 20S-Hydroxycholesterol, 25-Hydroxycholesterol, 22R-Hydroxycholesterol; 22S-Hydroxycholesterol; 7-ketocholesterol. Cells were always treated at 90% confluence. After 4 days, alkaline phosphatase activity was determined in whole cell lysates and normalized to protein. Alternatively, MSC cultures were prepared and treated with oxysterols as described above. Cells were treated at 90% confluence with the combination of 22R-Hydroxycholesterol and 20S-Hydroxycholesterol, each at 5 μM, for 4 to 96 hours. The oxysterols where removed and fresh media without oxysterols was added for a total duration of 96 hours. Alkaline phosphatase activity was measured in whole cell extracts and normalized to protein.
M2 cells were treated at 90% confluence with vehicle (C), or oxysterols 20S-Hydroxycholesterol or 22S-Hydroxycholesterol at (0.5 μM) or (1 μM), in the absence or presence of cytochrome P450 inhibitor (SKF525A 10 μM (+)). MSC cultures were also treated at 90% confluence with vehicle (C), or 20S-Hydroxycholesterol (2 μM), in the absence or presence of cytochrome P450 […] (Benzylimidazole 50 μM) or SKF525A (10 μM). After 4 days, alkaline phosphatase activity was measured in whole cell extracts and normalized to protein. […]

Test [2] shares this test system. Briefly: Matrix mineralization in M2 cells (von Kossa staining, 45Ca incorporation assay). It is filed as cell-based. To be noted: 0.5-10 μM, as many as 14 days, data not shown. As for the experimental part: as §1
Von Kossa and oil red O staining—Matrix mineralization in cell monolayers was detected by silver nitrate staining as previously described. Oil red O staining for detection of adipocytes was performed as previously described.
^45Ca incorporation assay—Matrix mineralization in cell monolayers was quantified using the ^45Ca incorporation assay as previously described.
M2 cells at confluence were treated in osteogenic medium with control vehicle or 5 μM oxysterols, alone or in combination as indicated. After 14 days, mineralization was identified by a von Kossa staining, which appears black. FIG. 3C is a depiction of von Kossa staining of M2 cells exposed to various conditions.
M2 cells were treated with control vehicle (C) or a combination of 22R and 20S oxysterols at increasing concentrations. After 14 days, matrix mineralization in cultures was quantified using a ^45Ca incorporation assay. […] FIG. 3D is a bar graph depicting the effect of a combination of oxysterols at various doses on calcium incorporation in M2 cells.
Next, a combination of 22R and 20S oxysterols (RS, 2.5 μM each) were added in the presence or absence of SC as indicated. After 3 days, ALP activity was measured as described earlier. […] (B) M2 cells were treated as described in (A) and after 10 days matrix mineralization in cultures was quantified by a ^45Ca incorporation assay as described earlier. Results from a representative of three experiments are shown, reported as the mean±SD of quadruplicate determinations, normalized to protein concentration. (C) M2 cells were pretreated with 20 μM SC for 4 hours, followed by the addition of RS in the presence or absence of SC as described above. After 8 days, total RNA was isolated and analyzed for osteocalcin (Osc) and 18S rRNA expression by Northern blotting as previously described. Data from densitometric analysis of the Northern blot is shown in (D) as the average of duplicate samples, normalized to 18S rRNA. (E) M2 cells at confluence were pretreated for 2 hours with control vehicle (C), or PLA2 inhibitors ACA (25 μM) and MCOCF3 (MC, 20 μM), in osteogenic medium. Next, a combination of 22R and 20S oxysterols (RS, 2.5 μM) was added in the presence or absence of the inhibitors as indicated. After 3 days, ALP activity was measured as previously described. Data from a representative of three experiments are shown, reported as the mean±SD of quadruplicate determinations, normalized to protein concentration (p<0.01 for RS vs. RS+ACA and RS+MC). (F) M2 cells were treated as described in (E). After 10 days, matrix mineralization in cultures was quantified using a ^45Ca incorporation assay as previously described. Results from a representative of three experiments are shown, reported as the mean of quadruplicate determinations±SD, normalized to protein concentration (p<0.01 for RS vs. RS+ACA and RS+MC).
(A) M2 cells at confluence were pretreated for four hours with RPMI containing 1% FBS, followed by treatment with control vehicle or 5 μM 20S oxysterol for 1, 4, or 8 hours. Next total cell extracts were prepared and analyzed for levels of native or phosphorylated ERK (pERK) using specific antibodies as previously described.

On to `CC(C)CCC[C@](C)(O)[C@H]1CC[C@H]2[C@@H]3CC=C4C[C@@H](O)CC[C@]4(C)[C@H]3CC[C@@]21C` [20S, 20(S)-hydroxycholesterol], for which, in test [1], the “induction of alkaline phosphatase activity” value was “induced”; the “dose- and time-dependence of induction of alkaline phosphatase activity” value (from here on “dose- and time-dependence”) is “dose- and time-dependent”; the alkaline phosphatase activity was 140±12 activity units/mg protein. Further, the “induction of mineralization, individual oxysterols” value (from here on “induction of mineralization”) in test [2] is “unable to induce”.

Regarding `CC(C)CC[C@@H](O)[C@@H](C)[C@H]1CC[C@H]2[C@@H]3CC=C4C[C@@H](O)CC[C@]4(C)[C@H]3CC[C@]12C` [22R, 22(R)-hydroxycholesterol], in test [1], the “induction of alkaline phosphatase activity” value is “induced”; the “dose- and time-dependence” value was “dose- and time-dependent”; the alkaline phosphatase activity was determined as 45±5 activity units/mg protein. Besides, in test [2], the “induction of mineralization” value was “unable to induce”.

For `CC(C)CC[C@H](O)[C@@H](C)[C@H]1CC[C@H]2[C@@H]3CC=C4C[C@@H](O)CC[C@]4(C)[C@H]3CC[C@]12C` [22S, 22(S)-hydroxycholesterol], in test [1], the “induction of alkaline phosphatase activity” value is “induced”; the “dose- and time-dependence” value is “dose- and time-dependent”. Also, the “induction of mineralization” value in test [2] is on record as “unable to induce”.
